The numbers were not newly measured in paper PMC4404702 (Molecular imaging and biology : MIB : the official …, 2014), which cites them from elsewhere.

One may read the Ki as a dissociation constant, usually derived from enzyme kinetics or from competition with a known ligand.

One data set deals with σ2. The conditions noted are these: read-out: Ki−σ2.
The target of a further data set is σ1. The conditions noted are these: read-out: Ki−σ1.

As for `O=C(Cc1cccc(Br)c1)NCc1ccc(F)cc1` [YUN-143, N-(4′-fluorobenzyl)-4-(3-bromophenyl)acetamide], the Ki was 6.1 ± 1.5 nM at σ2 and 1.2 ± 0.2 nM at σ1.
